Laboratory results as given in PMC9687610, “Adenosine-Mimicking Derivatives of 3-Aminopyrazine-2-Carboxamide: Towards Inhibitors of Prolyl-tRNA Synthetase with Antimycobacterial Activity” (Biomolecules, 2022).
In brackets after ≈: the same amount, converted by molar mass. Read-outs that look alike come from different tables or passages of the source.

Experiments:
[1] = system: Mycobacterium tuberculosis H37Ra ITM-M006710 (ATCC 9431); test: Microplate Alamar Blue Assay (MABA), Mtb H37Ra; format: cell-based; conditions: for MIC: Mycobacterium tuberculosis, 120 h, pH 6.6, MABA, Middlebrook 7H9 broth pH 6.6, resazurin after 120 h, read-out: Mtb H37Ra MIC
[2] = system: Mycobacterium smegmatis DSM 43465 (ATCC 607); test: Microplate Alamar Blue Assay (MABA), M. smegmatis; format: cell-based; conditions: Mycolicibacterium smegmatis, read-out: M. smegmatis MIC
[3] = system: M. aurum DSM 43999 (ATCC 23366); test: Microplate Alamar Blue Assay (MABA), M. aurum; format: cell-based; conditions: Mycolicibacterium aurum; MABA, resazurin after 72 h; read-out: M. aurum MIC
[4] = system: Staphylococcus aureus subsp. aureus CCM 4223 (ATCC 29213); test: Antibacterial microdilution broth (EUCAST), SA; format: cell-based; conditions: Staphylococcus aureus; read after 24 h; read-out: SA MIC
[5] = system: Staphylococcus aureus subsp. aureus methicillin-resistant (MRSA) CCM 4750 (ATCC 43300); test: Antibacterial microdilution broth (EUCAST), MRSA; format: cell-based; conditions: Staphylococcus aureus; read after 24 h; read-out: MRSA MIC
[6] = system: Staphylococcus epidermidis CCM 4418 (ATCC 12228); test: Antibacterial microdilution broth (EUCAST), SE; format: cell-based; conditions: read after 24 h, read-out: SE MIC
[7] = system: Enterococcus faecalis CCM 4224 (ATCC 29212); test: Antibacterial microdilution broth (EUCAST), EF; format: cell-based; conditions: Enterococcus faecalis; read after 24 h; read-out: EF MIC
[8] = system: Escherichia coli CCM 3954 (ATCC 25922); test: Antibacterial microdilution broth (EUCAST), EC; format: cell-based; conditions: Escherichia coli; read after 24 h; read-out: EC MIC
[9] = system: Acinetobacter baumannii DSM 30007 (ATCC 19606); test: Antibacterial microdilution broth (EUCAST), ACI; format: cell-based; conditions: Acinetobacter baumannii; read after 24 h; read-out: ACI MIC
[10] = system: Pseudomonas aeruginosa CCM 3955 (ATCC 27853); test: Antibacterial microdilution broth (EUCAST), PA; format: cell-based; conditions: Pseudomonas aeruginosa; read after 24 h; read-out: PA MIC
[11] = system: Candida albicans CCM 8320 (ATCC 24433); test: Antifungal microdilution broth (EUCAST), CA; format: cell-based; conditions: Candida albicans; read after 24 h; read-out: CA MIC
[12] = system: Candida krusei CCM 8271 (ATCC 6258); test: Antifungal microdilution broth (EUCAST), CK; format: cell-based; conditions: Pichia kudriavzevii; read after 24 h; read-out: CK MIC
[13] = system: Candida parapsilosis CCM 8260 (ATCC 22019); test: Antifungal microdilution broth (EUCAST), CP; format: cell-based; conditions: Lodderomyces parapsilosis; read after 24 h; read-out: CP MIC
[14] = system: Candida tropicalis CCM 8264 (ATCC 750); test: Antifungal microdilution broth (EUCAST), CT; format: cell-based; conditions: Candida tropicalis; read after 24 h; read-out: CT MIC
[15] = system: Aspergillus fumigatus ATCC 204305; test: Antifungal microdilution broth (EUCAST), AF; format: cell-based; conditions: Aspergillus fumigatus, ATCC204305; read after 24 h; read-out: AF MIC
[16] = system: Aspergillus flavus CCM 8363; test: Antifungal microdilution broth (EUCAST), AFla; format: cell-based; conditions: Aspergillus flavus, CCM8363; read after 24 h; read-out: AFla MIC
[17] = system: Lichtheimia corymbifera CCM 8077; test: Antifungal microdilution broth (EUCAST), LC; format: cell-based; conditions: Lichtheimia corymbifera, CCM8077; read after 24 h; read-out: LC MIC
[18] = system: Trichophyton interdigitale CCM 8377 (ATCC 9533); test: Antifungal microdilution broth (EUCAST), TI; format: cell-based; conditions: Trichophyton interdigitale, 72 h, read-out: TI MIC
[19] = system: HepG2 human hepatocellular carcinoma cells; test: In vitro HepG2 cytotoxicity (CellTiter 96); conditions: Homo sapiens, HepG2, 24 h, read-out: HepG2 IC50, 24 h incubation; * limit = highest evaluated concentration (precipitation in medium); ** over the 1000 µM limit
[20] = system: Klebsiella pneumoniae CCM 4415 (ATCC 10031); test: Antibacterial microdilution broth (EUCAST), KP; conditions: read after 24 h

SMILES | MIC [1] | MIC [3] | MIC [4] | MIC [5] | MIC [6] | MIC [7] | MIC [8] | MIC [9] | MIC [10] | MIC [11] | MIC [12] | MIC [13] | MIC [14] | MIC [15] | MIC [16] | MIC [17] | MIC [18] | melting point | IC50 [19] | KP MIC [20] | also measured
Cc1ccccc1C(=O)Nc1nccnc1C(N)=O [Compound 2] | ≥ 500 µg/mL | ≥ 500 µg/mL | > 500 µM | > 500 µM | > 500 µM | > 500 µM | > 500 µM | > 500 µM | > 500 µM | > 125 µM | > 125 µM | > 125 µM | > 125 µM | > 125 µM | > 125 µM | > 125 µM | > 125 µM | 234.4 to 235.9 °C | 422 µM | > 500 µM | MIC ([2]; MABA, resazurin after 48 h): ≥ 500 µg/mL
Cc1cccc(C(=O)Nc2nccnc2C(N)=O)c1 [Compound 3] | 62.5 µg/mL (≈ 244 µM) | ≥ 250 µg/mL | > 500 µM | > 500 µM | > 500 µM | > 500 µM | > 500 µM | > 500 µM | > 500 µM | > 500 µM | > 500 µM | > 500 µM | > 500 µM | > 500 µM | > 500 µM | > 500 µM | > 500 µM | 226.9 to 228.8 °C | > 100 µM | > 500 µM | MIC ([2]; MABA, resazurin after 48 h): ≥ 250 µg/mL
CCc1ccc(C(=O)Nc2nccnc2C(N)=O)cc1 [Compound 5] | ≥ 500 µg/mL | ≥ 500 µg/mL | > 250 µM | > 250 µM | > 250 µM | > 250 µM | > 250 µM | > 250 µM | > 250 µM | > 250 µM | > 250 µM | > 250 µM | > 250 µM | > 250 µM | > 250 µM | > 250 µM | > 250 µM | 215.5 to 218.5 °C | > 100 µM | > 250 µM | antimycobacterial activity (in words) ([1]; activity refers to Mtb H37Ra from the primary screening if not otherwise stated): no activity; MIC ([2]; MABA, resazurin after 48 h): ≥ 500 µg/mL
CC(C)(C)c1ccc(C(=O)Nc2nccnc2C(N)=O)cc1 [Compound 6] | 15.6 µg/mL (≈ 52.4 µM) | ≥ 500 µg/mL | > 125 µM | > 125 µM | > 125 µM | > 125 µM | > 125 µM | > 125 µM | > 125 µM | > 125 µM | > 125 µM | > 125 µM | > 125 µM | > 125 µM | > 125 µM | > 125 µM | > 125 µM | 210 to 211.5 °C | 114 µM | > 125 µM | MIC ([2]; 48 h): 15.6 µg/mL (≈ 52.4 µM)
COc1ccccc1C(=O)Nc1nccnc1C(N)=O [Compound 7] | 125 µg/mL (≈ 459 µM) | ≥ 500 µg/mL | > 500 µM | > 500 µM | > 500 µM | > 500 µM | > 500 µM | > 500 µM | > 500 µM | > 500 µM | > 500 µM | > 500 µM | > 500 µM | > 500 µM | > 500 µM | > 500 µM | > 500 µM | 205.4 to 206.7 °C | > 500 µM | > 500 µM | MIC ([2]; MABA, resazurin after 48 h): 62.5 µg/mL (≈ 230 µM)
COc1cccc(C(=O)Nc2nccnc2C(N)=O)c1 [Compound 8] | ≥ 250 µg/mL | ≥ 250 µg/mL | > 500 µM | > 500 µM | > 500 µM | > 500 µM | > 500 µM | > 500 µM | > 500 µM | > 500 µM | > 500 µM | > 500 µM | > 500 µM | > 500 µM | > 500 µM | > 500 µM | > 500 µM | 221 to 223 °C | > 100 µM | > 500 µM | MIC ([2]; MABA, resazurin after 48 h): ≥ 250 µg/mL
